Reference: patent US20140134169A1, “Methods of Treating Ovarian Cancer with Dll4 Antagonists” (Regeneron Pharmaceuticals, Inc., priority 2012, published 2014)

How the values were obtained:
[1] = tested on: human MDA-MB-231 breast tumor cells; assay: Growth of human MDA-MB-231 breast tumors implanted in SCID mice
Experimental: The effect of anti-Dll4 antibody in combination with docetaxel (TAXOTERE®, sanofi-aventis) on tumor growth was evaluated on tumors implanted in Severe Combined Immunodeficiency (SCID) mice. […] After the tumors were established in the mice (tumor size of ˜150-200 mm^3, approximately 45 days after implantation), mice were treated with hFc, docetaxel, Dll4 antibody, or a combination of docetaxel plus Dll4 antibody. A total of 25 tumor-bearing male mice were randomized into five groups (N=5 mice per group). […] Docetaxel and/or Dll4 antibody were administered on the same day. Animals were treated 2 times per week and received a total of 3 doses. Starting from the day of initial treatment, body weight and tumors were measured twice a week until the mice are euthanized. Mice were euthanized when tumors reached ˜600 mm^3 in size. Tumor size was calculated using the formula (length×width^2)/2.
The control tumors reached ˜600 mm^3 and were harvested on day 63.

[2] = tested on: rat C6 tumor cells (glioblastoma cells); assay: Growth of rat C6 tumors implanted in SCID mice; type: in vivo
Experimental: Each mouse was implanted subcutaneously (sc) with 1×10^6 rat C6 tumor cells (glioblastoma cells). […] Since these mice expressed mouse Dll4, the Dll4 Ab used in this experiment was prepared in-house, based on the published sequence (WO 2007/143689), and designated as REGN577. […] A total of 30 tumor-bearing male mice were randomized into six groups (N=5). […] Tumor size was calculated using the formula, (length×width2)/2.
TGI and TGD were determined (Table 3).

A2780 cells = assay: A2780 ovarian xenograft (intraperitoneal) tumor growth inhibition; type: in vivo, human; conditions: SCID mice (native murine Dll4); REGN421 2.5 mg/kg 1x/week, mDll4Ab1 5 mg/kg 1x/week, VEGF-Trap 10 mg/kg 2x/week
Experimental: Ovarian tumor xenograft cells were implanted into humanized Dll4 SCID mice or vendor SCID mice (i.e., SCID mice expressing native murine Dll4). After implantation, mice were treated with REGN421 (anti-human Dll4 antibody, binds to human Dll4), mDll4Ab1 (anti-murine Dll4 antibody, binds to murine Dll4), or a human Fc domain control protein. In one study, mice were treated with VEGF-Trap, mDll4Ab1 or VEGF-Trap plus mDll4Ab1. TOV-112D cells (5×10^6) were implanted subcutaneously into the right flank of humanized Dll4 (n=4) or vendor SCID mice (n=7). Treatment with REGN421 (2.5 mg/kg, 1×/week) or mDll4Ab1 (5 mg/kg, 1×/week) vs. hFc control was initiated one week after tumor cell implantation. Animals were treated for 2 to 3 weeks. A2780 cells (2×10^6) were implanted intraperitoneally into humanized Dll4 or vendor SCID mice (n=4-5). Treatment with REGN421 (2.5 mg/kg, 1×/week) or mDll4Ab1 (5 mg/kg, 1×/week) vs. hFc control was initiated one week after tumor cell implantation. For the A2780 combination study, simultaneous treatment with mDll4Ab1 (5 mg/kg, 1×/week) and VEGF-Trap (10 mg/kg, 2×/week) was initiated one week after tumor cell implantation. A VEGF-Trap single treatment arm was included in this study. Animals bearing A2780 tumors were treated for 4-5 weeks. SKOV-3 cells (5×10^6) in matrigel were implanted subcutaneously and tumor-bearing animals (n=10) were dosed with REGN421 (2.5 mg/kg) and mDll4Ab1 (5 mg/kg) once weekly. OVCAR-3 cells (1×10^7) were implanted subcutaneously into the right flank of vendor SCID mice (n=7). Treatment with mDll4Ab1 (5 mg/kg 1×/week) vs. hFc control was initiated 66 days after tumor cell implantation. Animals were treated for a total of 5 weeks. Tumor growth inhibition (TGI) was measured as detailed above.

[3] = tested on: human VM-Cub1 tumor cells (bladder carcinoma cells); assay: Growth of human VM-Cub1 tumors implanted in humanized Dll4 SCID mice; type: in vivo; conditions: for TGI(%): day 32; for TGD: to 600 mm3
Experimental: The humanized Dll4 SCID mouse was made by replacing the entire extracellular domain of the mouse Dll4 gene with the corresponding extracellular region of the human Dll4 gene (7 kb) in embryonic stem (ES) cells. Homozygous hDll4 mice were generated and bred into SCID background.
A total of 45 mice were divided into nine groups (n=5 per cohort). The first group was treated subcutaneously (sc) with hFc at 2 mg/kg; the second and third groups were treated sc with REGN421 at 0.5 and 2 mg/kg, respectively; the fourth and fifth groups were treated intraperitoneally (ip) with cisplatin at 0.5 and 2 mg/kg, respectively; the sixth group was treated sc with REGN421 at 0.5 mg/kg and ip with cisplatin at 0.5 mg/kg; the seventh group was treated sc with REGN421 at 0.5 mg/kg and ip with cisplatin at 2 mg/kg; the eighth group was treated sc with REGN421 at 2 mg/kg and ip with cisplatin at 0.5 mg/kg; and the ninth group was treated sc with REGN421 at 2 mg/kg and ip with cisplatin at 2 mg/kg. REGN421 was administered every 3-4 days starting on day 14 and mice received three doses total. Cisplatin was administered every 24 hours starting on day 14; mice received four doses total.
To assess the effects of REGN421 and cisplatin as single agents or in combination treatments, the changes in tumor size were recorded. Tumor growth was measured three days before the initial REGN421 treatment, on the day of each REGN421 treatment (days 14, 17 and 21) and thereafter every 3-4 days until tumors reached ˜600 mm3 in size. In vivo tumor size was calculated using the formula (length×width2)/2 (FIG. 1 and Table 1).
Tumor Growth Inhibition, TGI, was determined by calculating the difference in tumor size for treated (T) versus vehicle control (C) tumor at the day the control cohort was euthanized (i.e., at day 32); TGI=[1−(Tfinal−Tinitial)/(Cfinal−Cinitial)]×100.
(§1) Tumor growth delay, TGD, was assessed as the difference in days between treated (T) versus control (C) tumors when each cohort reached a specified tumor size. The predetermined tumor size for this experiment was 600 mm^3.

[4] = tested on: human A549 tumor cells (non-small cell lung cancer); assay: Growth of human A549 tumors implanted in humanized Dll4 SCID mice; type: in vivo
Experimental: as §1
Each mouse was implanted subcutaneously (sc) with 5×10^6 human A549 tumor cells (non-small cell lung cancer or “NSCLC”). […] A total of 36 mice were divided into 6 groups (n=6 per cohort). The first group was treated sc with hFc at 2 mg/kg; the second group was treated sc with REGN421 at 2 mg/kg; the third and fourth groups were treated ip with cisplatin at 2.5 and 4.5 mg/kg, respectively; the fifth group was treated sc with REGN421 at 2 mg/kg and ip with cisplatin at 2.5 mg/kg; and the sixth group was treated sc with REGN421 at 2 mg/kg and ip with cisplatin at 4.5 mg/kg. REGN421 was administered every 3-4 days starting on day 29 and mice received three doses total. Cisplatin was administered every 24 hours starting on day 29 and mice received two doses total.
To assess the effects of REGN421 and cisplatin as single agents or in combination we measured tumor size (volume), beginning three days before the initial REGN421 treatment, on the day of each agent treatment (days 29, 30, 33, 36) and thereafter every 3-4 days until tumors reached ˜600 mm^3 in size.

human HCT116 tumor cells = assay: Growth of human HCT116 tumors in humanized Dll4 SCID mice (irinotecan study); type: in vivo
Experimental: (§2) Each mouse was implanted subcutaneously (sc) with 5×10^6 human HCT116 tumor cells. […] The mice were then treated with hFc, REGN421, irinotecan or combination of REGN421 and irinotecan. A total of 30 mice were divided into 6 groups (n=5 per cohort). The first group was treated sc with hFc at 2 mg/kg; the second group was treated sc with REGN421 at 2 mg/kg; the third and fourth groups were treated ip with irinotecan at 7.5 and 25 mg/kg, respectively; the fifth group was treated sc with REGN421 at 2 mg/kg and ip with irinotecan at 7.5 mg/kg; and the sixth group was treated sc with REGN421 at 2 mg/kg and ip with irinotecan at 25 mg/kg. REGN421 was administered every 3-4 days starting on day 15 and mice received three doses total. Irinotecan was administered every 3-4 days starting on day 15 and mice received three doses total.
(§3) To assess the effects of REGN421 and irinotecan as single agents or in combination treatments, the changes in tumor size (volume) are measured, starting three days before the initial REGN421 treatment, and then on the day of each agent treatment (days 15, 19, 22) and thereafter every 3-4 days until tumors reach ˜600 mm^3 in size. In vivo tumor size is calculated using the formula (length×width^2)/2.

[5] = tested on: human HCT116 tumor cells (CRC); assay: Growth of human HCT116 tumors in humanized Dll4 SCID mice (5-FU study); type: in vivo
Experimental: as §2, with “cells (CRC).” for “cells.”, “5-FU” for “irinotecan”, “5-FU.” for “irinotecan.”, “15” for “7.5”, “22” for “15”, “5-FU” for “Irinotecan”
as §3, with “5-FU” for “irinotecan”, “combination,” for “combination treatments,”, “were” for “are”, “beginning” for “starting”, “22, 26, 29)” for “15, 19, 22)”, “(length×width^2)/2 (FIG. 3 and Table 5).” for “(length×width^2)/2.”

[6] = docetaxel 4.5 mg/kg iv (13.5 mg/kg total)
[7] = docetaxel 6 mg/kg iv (18 mg/kg total)
[8] = cisplatin 2.5 mg/kg ip (5 mg/kg total)
[9] = cisplatin 4.5 mg/kg ip (9 mg/kg total)
[10] = irinotecan 7.5 mg/kg ip (22.5 mg/kg total)
[11] = irinotecan 25 mg/kg ip (75 mg/kg total)
[12] = 5-FU 15 mg/kg ip (45 mg/kg total)
[13] = 5-FU 25 mg/kg ip (75 mg/kg total)

## CC(=O)O[C@@]12CO[C@@H]1C[C@H](O)[C@@]1(C)C(=O)[C@H](O)C3=C(C)[C@@H](OC(=O)[C@H](O)[C@@H](NC(=O)OC(C)(C)C)c4ccccc4)C[C@@](O)([C@@H](OC(=O)c4ccccc4)[C@H]21)C3(C)C [Docetaxel, docetaxel]
[1]; [6]
  TGD: 4 days
  TGI(%) at Day 25: 37%
[1]; [7]
  TGD: 4 days
  TGI(%) at Day 25: 52%
[2]; [6]
  TGD: 6 days
  TGI(%) at Day 25: 62%
[2]; [7]
  TGD: 7 days
  TGI(%) at Day 25: 70%

## VEGF-Trap: VEGF receptor-based chimeric molecule, SEQ ID NO:121 [reference compound]
A2780 cells
  % TGI: 88%

## N.N.[Cl][Pt][Cl] [Cisplatin, cis-diamminedichloroplatinum]
[3]; cisplatin 0.5 mg/kg/dose ip x4
  Euthanized: 45 days
  TGI(%): 60.7%
  TGD: 13 days
[3]; cisplatin 0.5 mg/kg/dose ip x4, listed as cisplatin
  TGI(%): 61%
[3]; cisplatin 2 mg/kg/dose ip x4
  Euthanized: 41 days
  TGI(%): 53.8%
  TGD: 9 days
[3]; cisplatin 2 mg/kg/dose ip x4, listed as cisplatin
  TGI(%): 54%
[4]; [8]
  TGD: 4 days
  TGI (%) at Day 57: 35%
[4]; [9]
  TGD: 11 days
  TGI (%) at Day 57: 22%

## CCc1c2c(nc3ccc(OC(=O)N4CCC(N5CCCCC5)CC4)cc13)-c1cc3c(c(=O)n1C2)COC(=O)[C@]3(O)CC [Irinotecan, irinotecan]
Human HCT116 tumor cells; [10]
  TGD: 8 days
  TGI(%) at Day 39: 71.2%
Human HCT116 tumor cells; [11]
  TGD: 16 days
  TGI(%) at Day 39: 100.5%

## O=c1[nH]cc(F)c(=O)[nH]1 [5-FU, 5-fluorouracil]
[5]; [12]
  TGD: 4 days
  TGI(%) at Day 39: 5.6%
[5]; [13]
  TGD: 2 days
  TGI(%) at Day 39: 0%
